Measurements taken from patent US7148243B2, “Antivirals” (Medivir AB, priority 1998, dated 2006).
Where “and” joins values, the source holds several entries; their conditions need not be identical. Equal values may be shown once. Read-outs that look alike come from different tables or passages of the source. Each block holds one compound with its values, some of them ahead of it.

What was measured:
[1] = Release of mother compound from orally administered prodrug, plasma level (Biological Example 4); format: in vivo, Sprague Dawley rats; details: oral Example 7 0.027 mmol/kg in propylene glycol, released Example 6 assayed
Method: The release of a compound of Formula I from an orally administered prodrug of Formula II was monitored in rats. The compound of Example 7 was made up in a propylene glycol vehicle and orally administered to paired fasted male Sprague Dawley rats at a dose corresponding to 0.027 mmol/kg. At the indicated time intervals, 0.2 ml blood was collected from a catheter implanted in the […] jugularis, centrifuged and frozen for later analysis. The released drug of Formula I (Example 6) was assayed by HPLC.

[2] = Bioavailability in different species, plasma level of mother compound (Biological Example 7); format: in vivo; details: rat, Example 12 0.026 mmol/kg, acacia/Tween
Method: Each substance was administered to duplicate rats.
(§1) A prodrug of the invention of Formula II (Example 12) was administered at the same dose (0.026 mmol/kg) and in the same vehicle (10% acacia and 1% Tween in water) to rats and cynomolgus monkeys. Plasma levels of the mother compound of Formula I (Example 10) was measured as a function of time.
The corresponding data for the compound of Example 28 (rat: acacia/Tween, monkey:propylene glycol) are shown in Table 5A: […]

[3] = as above; format: in vivo, cynomolgus monkeys; details: monkey, Example 12 0.026 mmol/kg, acacia/Tween
Method: Monkeys were fasted for 12 hours prior to oral administration but had free access to water. The test compound was delivered via an infant nasogastric feeding tube. After 6 hours the monkeys received an apple.
as §1

[4] = for plasma level of mother compound: 0.027 mmol/kg
Method: The rats used in pharmacokinetic examples were male Sprague-Dawley, with a weight about 200–250 g. The rats were fasted for at least 16 hours before the experiment, but had free access to water. The day before the experiment the rats were anaesthetized using a mixture of Efrane®, laughing gas and oxygen. A catheter was introduced into the vena jugularis. On the day of the experiment the weights of the rats were noted. The animals were shortly anaesthesized before the oral dose was given or the iv dose injected into the back of the neck. Each substance was administered to duplicate rats.
Compounds were dissolved in DMSO for intravenous administration.
The blood samples were centrifuged infectious agents neutralised with 1% SDS/64°/20 min and plasma stored at −20° C.
Plasma samples are prepared as follows: 40–100 μl of plasma is mixed with an equal volume of acetonitrile (10 seconds, Vibrofex). The sample is centrifuged (2 min, 14000 RPM) and 30 μl of the supernantant is injected into an HPLC system, as follows.
The vehicle was 10% acacia and 1% Tween in water or propylene glycol (asterisked).

HIV-1 IIIB = assay: Time to resistance, weekly passage in MT4 cells (Biological Example 2); format: cell-based; details: growth of viral resistance against time, FIG. 1, versus closest Santa Fe compound
Method: 2×10^4 MT4 cells per well in a microtitre plate are infected with 5–10 TCID50 of HIV-1 IIIB. The compounds being tested are added at concentrations around ED50 using 8 duplicates per concentration. After 6 days of incubation the RT activity in 10 μl supernatent is measured.
The following procedure is followed at subsequent passages of the cultures once per week.: Virus produced at the concentration of test compound showing >50% of the RT activity of untreated infected cells (SIC, Starting Inhibitory Concentration) are passaged to fresh MT4 cells. 15 μl supernatent from each of the eight duplicates are transferred to cells without the test compound (control) and to cells with test compound at the same concentration, and additionally two respectively fivefold higher concentrations. (See Table 2 below)
When viral growth is permitted at the highest non-toxic concentration (5–40 μM), 2–4 parallel wells are collected and expanded to give material for sequence analysis and cross-wise resistance.
FIG. 1 plots the growth of viral resistance for a compound of the invention (Example 8) against time. Also plotted is the corresponding curve for the closest Santa Fe compound, mentioned above.

[5] = molecular target: T1, HIV reverse transcriptase (Human immunodeficiency virus type 1 group M subtype B, UniProt P04585); assay: Binding kinetics by surface plasmon resonance (Biological Example 10); details: dissociation phase, 25° C., FIG. 3, versus prior art Santa Fe compound
T1 construct: made in house
Excerpt: The rate of association and dissociation of an NNRTI on the target enzyme can be directly assayed by surface plasmon resonance methodology, wherein reverse transcriptase is immobilized on the surface of a chip and the binding or dissociation of the putative inhibitor is monitored by observing the changes in refractive index caused by the concomitant increase or decrease in chip mass. A compound of the invention (Example 8) was compared to the closest prior art compound from Santa Fe, as depicted above. Experiments were performed on a BIACORE® 2000 (Biacore AB, Uppsala, Sweden), using BIAEVALUATION® software (ver 3.0) for evaluation of data. The binding of the small analyte (NNRTI) to the much larger enzyme results in binding responses in the range of 10–20 RU. […] During the dissociation phase there is insignificant change in bulk refractive index, thus the binding of the different substances have been evaluated during this phase. […]
Interaction with inhibitors: Stock solutions of inhibitors (1 mg/ml in DMSO) were dissolved in RT running buffer (10 mM Hepes pH 7.6; 4 mM MgCl2; 0.25 mM spermine; 40 mM KCl; 0.5% TRITON® X-100; 3% DMSO; 0.5% fetal calf serum) to a concentration of […]. Binding of substance to the RT was analysed by injection of […] of the diluted substance, the flow rate was […] and the temperature 25° C. […]

HIV = details: after only four weeks of therapy, virus isolated from patient serum; cited from earlier work

plasma level of mother compound ([1]; 30 min, individual rats): 240 ng/mL and 350 ng/mL | plasma level of mother compound ([1]; 60 min): 180 ng/mL and 280 ng/mL | plasma level of mother compound ([1]; 120 min): 130 ng/mL and 170 ng/mL | plasma level of mother compound ([1]; 240 min): 70 ng/mL and 120 ng/mL | plasma level of mother compound ([1]; 360 min): 50 ng/mL and 70 ng/mL
SMILES: CCC(=O)c1ccc(F)c([C@H]2C[C@H]2NC(=O)Nc2ccc(C#N)cn2)c1OC(=O)c1cccc(N)c1 (relative stereo) [Example 7, (1R, 2R)-N-[cis-2-(2-(3-aminophenylcarbonyloxy)-6-fluoro-3-propionylphenyl)-cyclopropyl]-N′-(5-cyanopyrid-2-yl)-urea]

plasma level of mother compound ([2]; 30 min, mother compound Example 10): 90 ng/mL and 50 ng/mL | plasma level of mother compound ([2]; 60 min): 100 ng/mL and 70 ng/mL | plasma level of mother compound ([2]; 120 min): 90 ng/mL and 80 ng/mL | plasma level of mother compound ([2]; 180 min): 80 ng/mL | plasma level of mother compound ([2]; 240 min): 60 ng/mL and 50 ng/mL | plasma level of mother compound ([3]; 45 min, mother compound Example 10): 80 ng/mL and 40 ng/mL | plasma level of mother compound ([3]; 90 min): 200 ng/mL and 260 ng/mL | plasma level of mother compound ([3]; 180 min): 1000 ng/mL and 550 ng/mL | plasma level of mother compound ([3]; 240 min): 720 ng/mL and 540 ng/mL | plasma level of mother compound ([3]; 360 min): 380 ng/mL and 390 ng/mL | plasma level of mother compound ([3]; 600 min): 130 ng/mL and 100 ng/mL | plasma level of mother compound ([3]; 24 h): 30 ng/mL
SMILES: CCC(=O)c1ccc(F)c([C@@H]2C[C@@H]2NC(=O)Nc2ccc(Br)cn2)c1OC(=O)c1cccc(N)c1 (relative stereo) [Example 12, (1S, 2S)-N-[cis-2-(2-(3-aminophenylcarbonyloxy)-6-fluoro-3-propionylphenyl)cyclopropyl]-N′-(5-bromopyrid-2-yl)-urea]

SMILES: CCC(=O)c1ccc(F)c([C@@H]2C[C@@H]2NC(=O)Nc2ccc(C#N)cn2)c1OCOC(=O)c1ccc(O)cc1 (relative stereo) [Example 37, (1S, 2S)-N-[cis-2-(6-fluoro-2-O-3-propionylphenyl)-cyclopropyl]-N′-[2-(5-cyanopyridyl)]urea-O-methylene-4-hydroxybenzoate]
plasma level of mother compound ([4]; propylene glycol (asterisked), 30 min): 234 ng/mL and 137 ng/mL | plasma level of mother compound ([4]; propylene glycol, 60 min): 273 ng/mL and 189 ng/mL | plasma level of mother compound ([4]; propylene glycol, 120 min): 111 ng/mL and 133 ng/mL | plasma level of mother compound ([4]; propylene glycol, 240 min): 56 ng/mL and 45 ng/mL | plasma level of mother compound ([4]; propylene glycol, 360 min): 54 ng/mL and 56 ng/mL | absolute oral bioavailability ([4]; determined relative to the iv dose, rats): 28–33%

SMILES: CCC(=O)c1ccc(F)c([C@@H]2C[C@@H]2NC(=O)Nc2ccc(C#N)cn2)c1O (stereo in doubt) [Example 8, (1 S,2S)-N-(cis-2-(6-fluoro-2-hydroxy-3-propionoylphenyl)-cyclopropyl)-N′-(5-cyanopyrid-2-yl)-urea]
rate of resistance development (HIV-1 IIIB): significantly slower rate of resistance development | dissociation rate from reverse transcriptase [5]: dissociating with the lowest rate

SMILES: Cc1ccnc2c1NC(=O)c1cccnc1N2C1CC1 [nevirapine]
loss of sensitivity of patient virus to the drug versus virus from untreated patients (HIV): 100 fold
